Patent US8471005B2 (Cephalon, Inc., priority 2008, dated 2013)
Read-outs that look alike come from different tables or passages of the source.

Target: T1, ALK (Homo sapiens, UniProt Q9UM73)
T1 construct: host or cells: baculovirus expression system
Assay: ALK Kinase Assay (ELISA/TRF, PLC-γ substrate)
Type: biochemical
Details: read-out: ALK Potency
Protocol: Briefly, each 96-well plate was coated with […] of 10 μg/mL substrate (phospholipase C-γ) in Tris-buffered saline (TBS). […] The reaction was initiated by adding enzyme (30 ng/ml ALK) and was allowed to proceed at 37° C. for 15 minutes. Detection of the phosphorylated product was performed by adding 100 μl/well of Eu—N1 labeled PT66 antibody (Perkin Elmer # AD0041).
Data analysis was performed using ActivityBase (IDBS, Guilford, UK). IC50 values were calculated by plotting percent inhibition versus log10 of the concentration of compound and fitting to the nonlinear regression sigmoidal dose-response (variable slope) equation in XLFit (IDBS, Guilford, UK).

[1] = ALK kinase inhibition, 1 μM ATP

T1 sequence (Q9UM73 19-1620): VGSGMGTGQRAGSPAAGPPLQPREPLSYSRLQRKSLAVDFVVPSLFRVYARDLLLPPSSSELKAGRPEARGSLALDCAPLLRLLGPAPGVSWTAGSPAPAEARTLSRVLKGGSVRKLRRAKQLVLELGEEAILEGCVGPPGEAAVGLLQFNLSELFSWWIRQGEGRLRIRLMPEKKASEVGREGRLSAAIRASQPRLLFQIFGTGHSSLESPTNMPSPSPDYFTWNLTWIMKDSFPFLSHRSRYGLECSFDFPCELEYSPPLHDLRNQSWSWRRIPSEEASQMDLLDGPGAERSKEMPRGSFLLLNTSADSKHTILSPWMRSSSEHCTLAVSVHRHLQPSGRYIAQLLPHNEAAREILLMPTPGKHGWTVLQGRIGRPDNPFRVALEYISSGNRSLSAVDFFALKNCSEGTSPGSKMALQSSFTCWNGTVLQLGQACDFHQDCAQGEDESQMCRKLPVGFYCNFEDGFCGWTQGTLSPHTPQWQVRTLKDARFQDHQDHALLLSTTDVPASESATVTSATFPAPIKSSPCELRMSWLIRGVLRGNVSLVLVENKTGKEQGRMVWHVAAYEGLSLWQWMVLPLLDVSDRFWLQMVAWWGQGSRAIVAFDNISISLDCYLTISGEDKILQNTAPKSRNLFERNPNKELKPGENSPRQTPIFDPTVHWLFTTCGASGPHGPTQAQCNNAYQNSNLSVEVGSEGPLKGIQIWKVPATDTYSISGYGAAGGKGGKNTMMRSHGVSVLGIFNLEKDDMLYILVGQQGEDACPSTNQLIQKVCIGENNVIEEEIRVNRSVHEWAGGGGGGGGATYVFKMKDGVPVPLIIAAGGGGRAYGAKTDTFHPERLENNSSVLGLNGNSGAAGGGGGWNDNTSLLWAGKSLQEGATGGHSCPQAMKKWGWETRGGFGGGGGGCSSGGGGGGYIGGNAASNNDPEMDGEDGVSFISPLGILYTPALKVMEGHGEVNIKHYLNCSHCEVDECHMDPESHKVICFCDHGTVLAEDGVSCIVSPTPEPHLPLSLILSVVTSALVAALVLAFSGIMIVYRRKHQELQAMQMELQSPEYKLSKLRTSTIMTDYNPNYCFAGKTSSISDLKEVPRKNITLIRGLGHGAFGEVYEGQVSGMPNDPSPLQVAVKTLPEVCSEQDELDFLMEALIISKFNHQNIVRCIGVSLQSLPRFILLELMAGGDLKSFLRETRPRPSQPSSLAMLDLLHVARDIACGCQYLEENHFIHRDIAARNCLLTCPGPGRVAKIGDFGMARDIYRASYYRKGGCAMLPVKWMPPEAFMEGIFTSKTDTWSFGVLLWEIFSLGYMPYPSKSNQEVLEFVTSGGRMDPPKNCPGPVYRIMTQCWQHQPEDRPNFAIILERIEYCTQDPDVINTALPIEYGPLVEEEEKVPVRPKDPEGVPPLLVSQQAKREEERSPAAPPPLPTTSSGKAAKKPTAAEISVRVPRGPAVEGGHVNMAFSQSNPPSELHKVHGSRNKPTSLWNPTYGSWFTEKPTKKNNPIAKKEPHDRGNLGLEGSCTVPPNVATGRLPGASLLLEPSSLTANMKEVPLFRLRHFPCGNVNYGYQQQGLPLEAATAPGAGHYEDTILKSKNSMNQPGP

| Molecule | IC50 (ALK Kinase Inhibition) [nM] | IC50 [1] [nM] |
| --- | --- | --- |
| COc1ccc(-c2ccc3cnc(Nc4ccc(N5CCN(C)CC5)c(Cl)c4)nn23)cn1 [Example 1419, [3-Chloro-4-(4-methyl-piperazin-1-yl)-phenyl]-[7-(6-methoxy-pyridin-3-yl)-pyrrolo[2,1-f][1,2,4]triazin-2-yl]-amine] | 100 to 1000 |  |
| CS(=O)(=O)N1Cc2cccc(-c3ccc4cnc(Nc5ccc(C6CCN(CC(N)=O)CC6)cc5)nn34)c2C1 [Example 579, 2-(4-{4-[7-(2-Methanesulfonyl-2,3-dihydro-1H-isoindol-4-yl)-pyrrolo[2,1-f][1,2,4]triazin-2-ylamino]-phenyl}-piperidin-1-yl)-acetamide] |  | 1000 to 10000 |
| N-tert-Butyl-3-{2-[3-fluoro-4-(4-methyl-piperazin-1-yl)-phenylamino]-pyrrolo[2,1-f][1,2,4]triazin-7-yl}-benzenesulfonamide [Example 1216] |  | 100 to 1000 |
| C[C@H](O)CN1CCN(c2ccc(Nc3ncc4ccc(-c5cccc(S(=O)(=O)NC(C)(C)C)c5)n4n3)cc2F)CC1 [Example 1412, N-tert-Butyl-3-(2-{3-fluoro-4-[4-((S)-2-hydroxy-propyl)-piperazin-1-yl]-phenylamino}-pyrrolo[2,1-f][1,2,4]triazin-7-yl)-benzenesulfonamide] | < 100 |  |
| CN1CCN(c2ccc(Nc3ncc4ccc(-c5ccccc5N(C)S(C)(=O)=O)n4n3)cc2Cl)CC1 [Example 1424, N-(2-{2-[3-Chloro-4-(4-methyl-piperazin-1-yl)-phenylamino]-pyrrolo[2,1-f][1,2,4]triazin-7-yl}-phenyl)-N-methyl-methanesulfonamide] | < 100 |  |
| COc1ccc(-c2ccc3cnc(Nc4ccc(N5CCN(C)CC5)cc4)nn23)cn1 [Example 81, [7-(6-Methoxy-pyridin-3-yl)-pyrrolo[2,1-f][1,2,4]triazin-2-yl]-[4-(4-methyl-piperazin-1-yl)-phenyl]-amine] | 100 to 1000 |  |
| CN1CCN(c2ccc(Nc3ncc4ccc(-c5ccccc5N(C)S(C)(=O)=O)n4n3)cc2F)CC1 [Example 1421, N-(2-{2-[3-Fluoro-4-(4-methyl-piperazin-1-yl)-phenylamino]-pyrrolo[2,1-f][1,2,4]triazin-7-yl}-phenyl)-N-methyl-methanesulfonamide] | < 100 |  |
| COc1cc(N2CCCC(N3CCN(CCO)CC3)C2)ccc1Nc1ncc2ccc(-c3ccccc3OC)n2n1 (centres unmarked) [Example 1443, 2-[4-(1-{3-Methoxy-4-[7-(2-methoxy-phenyl)-pyrrolo[2,1-f][1,2,4]triazin-2-ylamino]-phenyl}-piperidin-3-yl)-piperazin-1-yl]-ethanol] | < 100 |  |
| COc1ccccc1-c1ccc2cnc(Nc3ccc(N4CCN(C[C@H](C)O)CC4)c(F)c3)nn12 [Example 1417, (S)-1-(4-{2-Fluoro-4-[7-(2-methoxy-phenyl)-pyrrolo[2,1-f][1,2,4]triazin-2-ylamino]-phenyl}-piperazin-1-yl)-propan-2-ol] | < 100 |  |
| COc1cc(N2CCC(N3CCOCC3)CC2)ccc1Nc1ncc2ccc(-c3cccc(N(C)S(C)(=O)=O)c3)n2n1 [Example 1449, N-(3-{2-[2-Methoxy-4-(4-morpholin-4-yl-piperidin-1-yl)-phenylamino]-pyrrolo[2,1-f][1,2,4]triazin-7-yl}-phenyl)-N-methyl-methanesulfonamide] | < 100 |  |
| C[C@H](O)CN1CCN(c2ccc(Nc3ncc4ccc(-c5ccccc5N(C)S(C)(=O)=O)n4n3)cc2F)CC1 [Example 1423, N-[2-(2-{3-Fluoro-4-[4-((S)-2-hydroxy-propyl)-piperazin-1-yl]-phenylamino}-pyrrolo[2,1-f][1,2,4]triazin-7-yl)-phenyl]-N-methyl-methanesulfonamide] | < 100 |  |
| COc1ccccc1-c1ccc2cnc(Nc3ccc(N4CCN(C)CC4)cc3)nn12 [Example 20, [7-(2-Methoxy-phenyl)-pyrrolo[2,1-f][1,2,4]triazin-2-yl]-[4-(4-methyl-piperazin-1-1)-phenyl]-amine] | < 100 |  |
| COc1cc(N2CCN(C[C@@H](O)CO)CC2)ccc1Nc1ncc2ccc(-c3ccccc3OC)n2n1 [Example 758, (R)-3-(4-{3-Methoxy-4-[7-(2-methoxy-phenyl)-pyrrolo[2,1-f][1,2,4]triazin-2-ylamino]-phenyl}-piperazin-1-yl)-propane-1,2-diol] |  | < 100 |

Now from value to molecule:

| IC50 (ALK Kinase Inhibition) [nM] | IC50 [1] [nM] | Molecule |
| --- | --- | --- |
| < 100 |  | COc1ccccc1-c1ccc2cnc(Nc3ccc(N4CCN(C)CC4)c(Cl)c3)nn12 [Example 1418, [3-Chloro-4-(4-methyl-piperazin-1-yl)-phenyl]-[7-(2-methoxy-phenyl)-pyrrolo[2,1-f][1,2,4]triazin-2-yl]-amine] |
| < 100 |  | COc1cc(N2CCCC(N3CCNCC3)C2)ccc1Nc1ncc2ccc(-c3ccccc3OC)n2n1 (centres unmarked) [Example 1448, [7-(2-Methoxy-phenyl)-pyrrolo[2,1-f][1,2,4]triazin-2-yl]-[2-methoxy-4-(3-piperazin-1-yl-piperidin-1-yl)-phenyl]-amine] |
|  | < 100 | Cc1cc2cnc(Nc3ccc(N4CCN(C)CC4)cc3)nn2c1-c1cccc(CCC#N)c1 [Example 1160, 3-(3-{6-Methyl-2-[4-(4-methyl-piperazin-1-yl)-phenylamino]-pyrrolo[2,1-f][1,2,4]triazin-7-yl}-phenyl)-propionitrile] |
| < 100 |  | CCOc1ccccc1-c1ccc2cnc(Nc3ccc(N4CCC(N5CCOCC5)CC4)cc3OC)nn12 [Example 1447, [7-(2-Ethoxy-phenyl)-pyrrolo[2,1-f][1,2,4]triazin-2-yl]-[2-methoxy-4-(4-morpholin-4-yl-piperidin-1-yl)-phenyl]-amine] |
| < 100 |  | CN1CCN(c2ccc(Nc3ncc4ccc(-c5cccc(S(=O)(=O)NC(C)(C)C)c5)n4n3)cc2)CC1 [Example 23, N-tert-Butyl-3-{2-[4-(4-methyl-piperazin-1-yl)-phenylamino]-pyrrolo[2,1-f][1,2,4]triazin-7-yl}-benzenesulfonamide] |
|  | < 100 | COc1cc(N2CCC(N3CCNCC3)CC2)ccc1Nc1ncc2ccc(-c3ccccc3OC)n2n1 [Example 537, [7-(2-Methoxy-phenyl)-pyrrolo[2,1-f][1,2,4]triazin-2-yl]-[2-methoxy-4-(4-piperazin-1-yl-piperidin-1-yl)-phenyl]-amine] |
| < 100 |  | CN1CCN(c2ccc(Nc3ncc4ccc(-c5cccc(S(=O)(=O)NC(C)(C)C)c5)n4n3)cc2Cl)CC1 [Example 1411, N-tert-Butyl-3-{2-[3-chloro-4-(4-methyl-piperazin-1-yl)-phenylamino]-pyrrolo[2,1-f][1,2,4]triazin-7-yl}-benzenesulfonamide] |
| < 100 |  | COc1cc(N2CCC(N3CCOCC3)CC2)ccc1Nc1ncc2ccc(-c3cccc(NS(C)(=O)=O)c3)n2n1 [Example 1446, N-(3-{2-[2-Methoxy-4-(4-morpholin-4-yl-piperidin-1-yl)-phenylamino]-pyrrolo[2,1-f][1,2,4]triazin-7-yl}-phenyl)-methanesulfonamide] |
|  | < 100 | COc1cc(N2CCCN(C[C@H](O)CO)CC2)ccc1Nc1ncc2ccc(-c3ccccc3OC)n2n1 [Example 767, (S)-3-(4-{3-Methoxy-4-[7-(2-methoxy-phenyl)-pyrrolo[2,1-f][1,2,4]triazin-2-ylamino]-phenyl}-[1,4]diazepan-1-yl)-propane-1,2-diol] |
|  | < 100 | COc1cc(N2CCC(N3CCN(C(C)=O)CC3)CC2)ccc1Nc1ncc2ccc(-c3ccccc3OC)n2n1 [Example 536, 1-[4-(1-{3-Methoxy-4-[7-(2-methoxy-phenyl)-pyrrolo[2,1-f][1,2,4]triazin-2-ylamino]-phenyl}-piperidin-4-yl)-piperazin-1-yl]-ethanone] |
